Test results: ChEMBL document CHEMBL1201862, “PubChem BioAssay data set” (2004)
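Results reflect a 48-hour exposure of cells in 96-well plates to compound at five concentrations. Here, GI50 denotes the concentration required for 50% inhibition of growth.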 The source made the active and inactive calls. Rule as the data show it: active = GI50 up to about 1.1 µM and inactive = higher.

Experiments:
Assay in all cases: NCI tumour cell line growth inhibition, 48 h
M14 = system: M14
T47D = system: T47D
SF-539 = system: SF-539
RPMI-8226 = system: RPMI-8226
NCI-H226 = system: NCI-H226
MOLT-4 = system: MOLT-4
786-0 = system: 786-0
SK-MEL-2 = system: SK-MEL-2
PC-3 = system: PC-3
HCC 2998 = system: HCC 2998
IGROV-1 = system: IGROV-1
NCI/ADR-RES = system: NCI/ADR-RES
EKVX = system: EKVX
SNB-19 = system: SNB-19
RXF 393 = system: RXF 393
BT-549 = system: BT-549
HT-29 = system: HT-29
SF-268 = system: SF-268
SK-MEL-5 = system: SK-MEL-5

Compound | GI50 (M14) | GI50 (T47D) | GI50 (SF-539) | GI50 (RPMI-8226) | GI50 (NCI-H226) | GI50 (MOLT-4) | GI50 (786-0) | GI50 (SK-MEL-2) | GI50 (PC-3) | GI50 (HCC 2998) | GI50 (IGROV-1) | GI50 (NCI/ADR-RES) | GI50 (EKVX) | GI50 (SNB-19) | GI50 (RXF 393) | GI50 (BT-549) | GI50 (HT-29) | GI50 (SF-268) | GI50 (SK-MEL-5)
N#CC(C#N)[C@@H]1CCC=C(Sc2ccccc2)[C@H]1Sc1ccccc1 | 1.96 µM (inactive) | 1.45 µM (inactive) | 2 µM (inactive) | 2.28 µM (inactive) | 1.72 µM (inactive) | 2.38 µM (inactive) | 2.17 µM (inactive) | 3.07 µM (inactive) | 3.86 µM (inactive) | 2.86 µM (inactive) | 2.29 µM (inactive) | 2.72 µM (inactive) | 4.54 µM (inactive) | 12.8 µM (inactive) | 1.83 µM (inactive) | 3.23 µM (inactive) | 3.87 µM (inactive) | 5.62 µM (inactive) | 3.41 µM (inactive)
COc1ccc(CCNC(=O)Cc2ccccc2CO)cc1OC | > 100 µM (inactive) | > 100 µM (inactive) | > 100 µM (inactive) | > 100 µM (inactive) | > 100 µM (inactive) | > 100 µM (inactive) | > 100 µM (inactive) | > 100 µM (inactive) | > 100 µM (inactive) | > 100 µM (inactive) | > 100 µM (inactive) | > 100 µM (inactive) | > 100 µM (inactive) |  | > 100 µM (inactive) | > 100 µM (inactive) | > 100 µM (inactive) | > 100 µM (inactive) | > 100 µM (inactive)
Cc1c(C)c2c(c(N)c1C#N)C(=O)N(N)C2=O | > 100 µM (inactive) | > 100 µM (inactive) | > 100 µM (inactive) | > 100 µM (inactive) | 78.7 µM (inactive) | 61.7 µM (inactive) | 87.9 µM (inactive) | > 100 µM (inactive) | > 100 µM (inactive) | > 100 µM (inactive) | > 100 µM (inactive) | > 100 µM (inactive) | > 100 µM (inactive) | > 100 µM (inactive) | > 100 µM (inactive) | > 100 µM (inactive) | > 100 µM (inactive) | > 100 µM (inactive) | > 100 µM (inactive)
C(=N\c1ccc(-c2nc3ccccc3s2)cc1)/c1ccc[nH]1 | 17.9 µM (inactive) | 13.4 µM (inactive) | 17.6 µM (inactive) | 15.5 µM (inactive) | 14.8 µM (inactive) | 11.7 µM (inactive) | 21.9 µM (inactive) | 17.3 µM (inactive) | 14.9 µM (inactive) | 16.5 µM (inactive) | 15.1 µM (inactive) | 13.3 µM (inactive) | 17.2 µM (inactive) | 29.4 µM (inactive) | 16 µM (inactive) | 17.3 µM (inactive) | 19.8 µM (inactive) | 15.5 µM (inactive) | 16.7 µM (inactive)
COC(=O)C#Cc1ccc([N+](=O)[O-])cc1 | 2.05 µM (inactive) | 1.45 µM (inactive) | 1.69 µM (inactive) | 0.665 µM (active) | 2.47 µM (inactive) | 0.659 µM (active) | 2.32 µM (inactive) | 3.69 µM (inactive) | 3.73 µM (inactive) | 1.76 µM (inactive) | 1.81 µM (inactive) | 2.87 µM (inactive) | 1.76 µM (inactive) | 2.75 µM (inactive) | 1.9 µM (inactive) | 1.49 µM (inactive) | 1.6 µM (inactive) | 4.16 µM (inactive) | 2.4 µM (inactive)
CC(=O)O[C@@H]1C[C@]2(C(=O)c3ccccc3)C(=O)C(=O)S[C@]12c1ccccc1 | 38.4 µM (inactive) | 28.3 µM (inactive) | 24.2 µM (inactive) | 30.4 µM (inactive) | 52.6 µM (inactive) | 28.4 µM (inactive) | 35.5 µM (inactive) | 38.5 µM (inactive) | 36.5 µM (inactive) | 26.7 µM (inactive) | 45.4 µM (inactive) | 41.6 µM (inactive) | 52.2 µM (inactive) | 39.8 µM (inactive) | 25.9 µM (inactive) | 44.1 µM (inactive) | 67.9 µM (inactive) | 34.4 µM (inactive) | 32.4 µM (inactive)
N#Cc1c(-c2ccccc2)c(/C=N/c2cccc(C(F)(F)F)c2)c(=O)n2c1[nH]c1ccccc12 | 32.3 µM (inactive) | 35.2 µM (inactive) | 16.7 µM (inactive) | 6.35 µM (inactive) | 26.7 µM (inactive) |  | 36.1 µM (inactive) | 22.1 µM (inactive) | 31 µM (inactive) | 30.8 µM (inactive) | 29.2 µM (inactive) | 25.1 µM (inactive) | 19.1 µM (inactive) | 30.5 µM (inactive) | 32.8 µM (inactive) | 48 µM (inactive) |  | 35.6 µM (inactive) | 52 µM (inactive)
Cc1ccc(C2=Nn3c(nc4sc5c(c4c3=O)CCCC5)SC2)cc1 |  | > 100 µM (inactive) | > 100 µM (inactive) | > 100 µM (inactive) | > 100 µM (inactive) | > 100 µM (inactive) | > 100 µM (inactive) |  | > 100 µM (inactive) | > 100 µM (inactive) | > 100 µM (inactive) | > 100 µM (inactive) | > 100 µM (inactive) |  | > 100 µM (inactive) | > 100 µM (inactive) | > 100 µM (inactive) | > 100 µM (inactive) | > 100 µM (inactive)
Cc1nc(NC(C)(CO)CO)nc(N/N=C/c2ccc(Cl)cc2)c1C(=O)Nc1ccc(Cl)cc1 | > 100 µM (inactive) | > 100 µM (inactive) | > 100 µM (inactive) | > 100 µM (inactive) | > 100 µM (inactive) | 65.5 µM (inactive) | > 100 µM (inactive) | > 100 µM (inactive) | > 100 µM (inactive) | > 100 µM (inactive) | > 100 µM (inactive) | > 100 µM (inactive) | > 100 µM (inactive) | > 100 µM (inactive) | 28.4 µM (inactive) | > 100 µM (inactive) | > 100 µM (inactive) | > 100 µM (inactive) | 
CC(C)(C)OC(=O)N(O)CCCn1cnc2c(NC3CC3)ncnc21 | > 100 µM (inactive) | > 100 µM (inactive) | > 100 µM (inactive) | > 100 µM (inactive) | > 100 µM (inactive) | > 100 µM (inactive) | > 100 µM (inactive) | > 100 µM (inactive) | > 100 µM (inactive) | > 100 µM (inactive) | 75.3 µM (inactive) | > 100 µM (inactive) | > 100 µM (inactive) | > 100 µM (inactive) | > 100 µM (inactive) | > 100 µM (inactive) | > 100 µM (inactive) | > 100 µM (inactive) | > 100 µM (inactive)
O=C1C2=Nc3ccccc3C(O)N2c2ccccc21 (stereo not drawn) | > 78.2 µM (inactive) | 37.6 µM (inactive) | 49.3 µM (inactive) | 53.8 µM (inactive) | 27.8 µM (inactive) | > 87.5 µM (inactive) | 36.6 µM (inactive) |  | > 86.9 µM (inactive) | 27.2 µM (inactive) | 40.2 µM (inactive) | 40.3 µM (inactive) | 57.9 µM (inactive) | 74.1 µM (inactive) | > 10 µM (inactive) | 28.4 µM (inactive) | 58.2 µM (inactive) | 31.6 µM (inactive) | 1.95 µM (inactive)
Cc1cc2c(c(/C=N/Cc3ccccc3)c1)OC1(C=C2)Oc2ccccc2C(=O)N1C (stereo not drawn) | 23.2 µM (inactive) | 10.4 µM (inactive) |  | 12.1 µM (inactive) | 16 µM (inactive) | 4.5 µM (inactive) | 29.4 µM (inactive) | 24.9 µM (inactive) | 24.7 µM (inactive) | 27.1 µM (inactive) | 22 µM (inactive) | 20.2 µM (inactive) | 15.3 µM (inactive) | 31.6 µM (inactive) | 20 µM (inactive) | 23.5 µM (inactive) | 21.6 µM (inactive) | 21.8 µM (inactive) | 19.9 µM (inactive)
O=c1cc(NNc2ccccc2F)[nH]c(=O)[nH]1 | 17.7 µM (inactive) | 0.679 µM (active) | 16.8 µM (inactive) | 17.8 µM (inactive) | 21.2 µM (inactive) | 23.4 µM (inactive) | 15.3 µM (inactive) | 16.7 µM (inactive) | 18.9 µM (inactive) | 17.9 µM (inactive) | 16.7 µM (inactive) | 16.6 µM (inactive) |  | > 100 µM (inactive) | 1.26 µM (inactive) | 17.5 µM (inactive) | 17.9 µM (inactive) | 19.4 µM (inactive) | 22.3 µM (inactive)
O=S(=O)(O)c1cc(Nc2ccnc3ccccc23)c2c(S(=O)(=O)O)cc(S(=O)(=O)O)cc2c1 | > 100 µM (inactive) | > 100 µM (inactive) | > 100 µM (inactive) | > 100 µM (inactive) | > 100 µM (inactive) | > 100 µM (inactive) | > 100 µM (inactive) | > 100 µM (inactive) | > 100 µM (inactive) | > 100 µM (inactive) | > 100 µM (inactive) | > 100 µM (inactive) | > 100 µM (inactive) |  | > 100 µM (inactive) | > 100 µM (inactive) | > 100 µM (inactive) | > 100 µM (inactive) | > 100 µM (inactive)
COC(=O)[C@H](Cc1ccccc1)NC(=O)c1ccc(CNC(=O)/C=C/c2ccc(-c3ccccc3)cc2)cc1 | 94.6 µM (inactive) | > 100 µM (inactive) |  | > 100 µM (inactive) | > 100 µM (inactive) | > 100 µM (inactive) | 3.56 µM (inactive) | > 100 µM (inactive) | > 100 µM (inactive) | 11.5 µM (inactive) | > 100 µM (inactive) | 59.8 µM (inactive) | > 100 µM (inactive) | 12.6 µM (inactive) | 11.1 µM (inactive) | 24.9 µM (inactive) | 3.71 µM (inactive) | 15.2 µM (inactive) | > 100 µM (inactive)
